# How the values were obtained:
# thrombocytes = experiment: ADP-induced aggregation of thrombocytes in vitro (Born method, plasma enriched with thrombocytes); type: cell-based, rabbit; conditions: 3-minute incubation, ADP 10^−5 M
# Protocol: The aggregation of thrombocytes was studied by the Born method based on determination of the changes in the optical density of plasma enriched with thrombocytes after its incubation with an aggregation inductor.
# Adenozinediphosphoric acid (ADP) was selected as an aggregation inductor, which in fact is an aggregation generator. Use was made of a sample (registration number 885) of the Sigma Diagnostics Company (USA) in final concentration of 10^−5 M.
# The experiments were carried out on male rabbits of the “Chinchilla” breed having a mass of 2.7±0.3 kg. 18-24 hours prior to the experiment they were deprived of feed while preserving free access to water.
# To obtain plasma enriched with thrombocytes, blood was taken from a cut of a marginal vein of the rabbit ear, the sample was stabilized with 3.8% of sodium citrate solution in a ratio of 9:1 and centrifuged at 200 g (1000 rev/min) for 10 minutes. The top supernatant layer enriched with thrombocytes was transferred by an automatic dropper into a silicone test tube and kept at 37° C. The plasma enriched with thrombocytes contained, on the average, […]. If this content exceeded the specified 3×10^8 blood platelets in 1 liter, this sample was diluted to the necessary concentration with plasma deprived of thrombocytes, which was obtained by centrifuging blood at 650 g during 10 minutes.
# The measurements of the optical density of the samples were made on two-channel aggregometer of the “Chronolog” Company (USA). A flask containing 490 mkl of plasma rich with thrombocytes was placed in a device, into which a magnetic agitator covered with Teflon was lowered. The index of maximum amplitude of aggregation (MA) in percent of a fall of the plasma optical density under effect of the aggregation inductor was recorded. The control index MA of plasma was compared with the MA of plasma incubated for 3 minutes with different concentrations of the compounds: from 10^−3 to 10^−7 in vitro experiments or with plasma obtained 15, 30, 60 and 120 minutes after intravenous administration of different doses of the compounds in vivo experiments.
# The process of aggregation of thrombocytes was recorded with the help of a computer; on the monitor screen the there were depicted curves reflecting changes of the optical density of the plasma enriched which was taken as a standard 100% compared to the optical density of the non-thrombocyte plasma taken for 0% content of thrombocytes.
# Under in vitro conditions a flask was filled with blood plasma enriched with thrombocytes, to which an aggregation inductor ADP was added at a concentration of 10^−5 M, incubated for 3 minutes, and then the compounds according to the invention were introduced directly into the flask. Their action by aggregation of thrombocytes was studied after 3-minute incubation in a wide range of concentrations from 10^−3 to 10^−7 M to minimum concentration of 10^−7M not inducing no effect of suppressing the aggregation.
# [1] = Chronic toxicity of suppositories: indexes of peripheral blood; type: in vivo, rats; parameters: Thrombocytes: unit not given here; conditions: male rats, suppositories rectally; for Basophiles / Juveniles: 1 month/2 months (one value given), control 0
structure (smiles),measurement,setting,value
"Nc1ncc2c(=O)[nH][nH]c(=O)c2n1 [Compound 36, 2-amino-pyrimido[4,5-d]-6H-pyridazine-5,8-dione]","MA - fall of optical density of plasma, % to the standard","thrombocytes; 10^−3 M, control 60.8 ± 3.4",45.8 ± 2.3 %
same,"MA - fall of optical density of plasma, % to the standard","thrombocytes; 10^−4 M, control 60.0 ± 2.1",46.9 ± 2.4 %
same,"MA - fall of optical density of plasma, % to the standard","thrombocytes; 10^−5 M, control 52.5 ± 2.1",40.1 ± 2.0 %
same,"MA - drop of optical density, %","thrombocytes; 10^−6 M, control 52.8 ± 1.8",49.3 ± 2.6%
same,"MA - drop of optical density, %","thrombocytes; 10^−7 M, control 51.5 ± 2.1",49.7 ± 1.8%
"O=c1[nH]n([C@@H]2O[C@H](CO)[C@@H](O)[C@H]2O)c(=O)c2nc(O)cnc12.[Na].[Na] [Compound 23, disodium salt of 2-hydroxy-7-(β-D-ribofuranosile)pyrazine[2,3—Cl]-6H-pyridazine-5,8-dione]",Basophiles,[1]; 50 mg/kg,0%
same,Juveniles,[1]; 50 mg/kg,0%
same,Stab neutrophil,"[1]; 50 mg/kg, 1 month, control 0.8 ± 0.4",1.1 ± 0.5%
same,REE,"[1]; 50 mg/kg, 1 month, control 2.2 ± 0.4",1.7 ± 0.8 mm/h
same,Reticulocytes,"[1]; 50 mg/kg, 1 month, control 2.8%0.3",2.7 ± 0.3%
same,Eosinophiles,"[1]; 50 mg/kg, 1 month, control 4.0 + 0.3",3.6 ± 0.5%
same,Erythrocytes,"[1]; 50 mg/kg, 1 month, control 5.6 ± 0.1",5.7 ± 0.1 mln/mm^3
same,Hemoglobin,"[1]; 50 mg/kg, 1 month, control 10.5 ± 0.2",10.7 ± 0.1 mmol/L
same,Leukocyte,"[1]; 50 mg/kg, 1 month, control 17.4 ± 1.3",15.5 ± 1.1 thousand/mm^3
same,Haematocrite,"[1]; 50 mg/kg, 1 month, control 45.9 ± 1.7",47.7 ± 1.2%
same,Average volume of erythrocytes,"[1]; 50 mg/kg, 1 month, control 81.4 ± 1.7",82.7 ± 1.6 Mkm^3
same,"Coagulation, time","[1]; 50 mg/kg, 1 month, control 152 ± 10.2",150 ± 15 s
same,Thrombocytes,"[1]; 50 mg/kg, 1 month, control 707 ± 23",659 ± 18
same,REE,"[1]; 50 mg/kg, 2 months, control 1.4 ± 0.2",1.5 ± 0.1 mm/h
same,Stab neutrophil,"[1]; 50 mg/kg, 2 months, control 2.4 ± 0.4",1.6 ± 0.2%
same,Reticulocytes,"[1]; 50 mg/kg, 2 months, control 2.9 ± 0.2",2.8 ± 0.1%
same,Eosinophiles,"[1]; 50 mg/kg, 2 months, control 4.4 + 1.2",4.0 ± 0.7%
same,Erythrocytes,"[1]; 50 mg/kg, 2 months, control 6.1 ± 0.1",6.0 ± 0.2 mln/mm^3
same,Hemoglobin,"[1]; 50 mg/kg, 2 months, control 11.4 ± 0.2",11.0 ± 0.1 mmol/L
same,Leukocyte,"[1]; 50 mg/kg, 2 months, control 19.1 ± 1.9",17.6 ± 1.2 thousand/mm^3
same,Haematocrite,"[1]; 50 mg/kg, 2 months, control 45.9 ± 1.8",46.5 ± 1.3%
same,Average volume of erythrocytes,"[1]; 50 mg/kg, 2 months, control 74.6 + 1.9",77.5 ± 1.7 Mkm^3
same,"Coagulation, time","[1]; 50 mg/kg, 2 months, control 316 ± 8",313 ± 17 s
same,Thrombocytes,"[1]; 50 mg/kg, 2 months, control 593 ± 14",586 ± 28
same,Basophiles,[1]; 500 mg/kg,0%
same,Juveniles,[1]; 500 mg/kg,0%
same,Stab neutrophil,"[1]; 500 mg/kg, 1 month, control 0.8 ± 0.4",1.0 ± 0.3%
same,REE,"[1]; 500 mg/kg, 1 month, control 2.2 ± 0.4",2.0 ± 0.3 mm/h
same,Reticulocytes,"[1]; 500 mg/kg, 1 month, control 2.8%0.3",3.1 ± 0.1%
same,Eosinophiles,"[1]; 500 mg/kg, 1 month, control 4.0 + 0.3",3.3 ± 0.7%
same,Erythrocytes,"[1]; 500 mg/kg, 1 month, control 5.6 ± 0.1",5.7 ± 0.2 mln/mm^3
same,Hemoglobin,"[1]; 500 mg/kg, 1 month, control 10.5 ± 0.2",10.7 ± 0.2 mmol/L
same,Leukocyte,"[1]; 500 mg/kg, 1 month, control 17.4 ± 1.3",16.4 ± 1.1 thousand/mm^3
same,Haematocrite,"[1]; 500 mg/kg, 1 month, control 45.9 ± 1.7",47.9 ± 1.1%
same,Average volume of erythrocytes,"[1]; 500 mg/kg, 1 month, control 81.4 ± 1.7",83.5 ± 1.7 Mkm^3
same,"Coagulation, time","[1]; 500 mg/kg, 1 month, control 152 ± 10.2",156 ± 11 s
same,Thrombocytes,"[1]; 500 mg/kg, 1 month, control 707 ± 23",678 ± 18
same,REE,"[1]; 500 mg/kg, 2 months, control 1.4 ± 0.2",1.7 ± 0.3 mm/h
same,Stab neutrophil,"[1]; 500 mg/kg, 2 months, control 2.4 ± 0.4",1.6 ± 0.2%
same,Reticulocytes,"[1]; 500 mg/kg, 2 months, control 2.9 ± 0.2",3.4 ± 0.1%
same,Eosinophiles,"[1]; 500 mg/kg, 2 months, control 4.4 + 1.2",3.8 ± 1.3%
same,Erythrocytes,"[1]; 500 mg/kg, 2 months, control 6.1 ± 0.1",6.4 ± 0.2 mln/mm^3
same,Hemoglobin,"[1]; 500 mg/kg, 2 months, control 11.4 ± 0.2",12.3 ± 0.3 mmol/L
same,Leukocyte,"[1]; 500 mg/kg, 2 months, control 19.1 ± 1.9",20.1 ± 1.7 thousand/mm^3
same,Haematocrite,"[1]; 500 mg/kg, 2 months, control 45.9 ± 1.8",49.4 ± 1.9%
same,Average volume of erythrocytes,"[1]; 500 mg/kg, 2 months, control 74.6 + 1.9",82.1 ± 1.4 Mkm^3
same,"Coagulation, time","[1]; 500 mg/kg, 2 months, control 316 ± 8",3171 ± 12 s
same,Thrombocytes,"[1]; 500 mg/kg, 2 months, control 593 ± 14",628 ± 23
"O=c1[nH][nH]c(=O)c2nccnc12.[Li] [Compound 25, lithium salt of pyrazine[2,3-d]-6H-pyridazine-5,8-dione]","MA - fall of optical density of plasma, % to the standard","thrombocytes; 10^−3 M, control 60.8 ± 3.4",48.2 ± 2.9 %
same,"MA - fall of optical density of plasma, % to the standard","thrombocytes; 10^−4 M, control 60.0 ± 2.1",48.6 ± 2.0 %
same,"MA - fall of optical density of plasma, % to the standard","thrombocytes; 10^−5 M, control 52.5 ± 2.1",43.4 ± 3.2 %
same,"MA - drop of optical density, %","thrombocytes; 10^−6 M, control 52.8 ± 1.8",50.3 ± 2.1%
same,"MA - drop of optical density, %","thrombocytes; 10^−7 M, control 51.5 ± 2.1",50.1 ± 3.0%
"O=c1[nH][nH]c(=O)c2ncccc12.[Li] [Compound 6, lithium salt of pyrido[2,3-d]-6H-pyridazine-5,8-dione]","MA - fall of optical density of plasma, % to the standard","thrombocytes; 10^−3 M, control 60.8 ± 3.4",50.0 ± 1.9 %
same,"MA - fall of optical density of plasma, % to the standard","thrombocytes; 10^−4 M, control 60.0 ± 2.1",53.3 ± 2.2 %
same,"MA - fall of optical density of plasma, % to the standard","thrombocytes; 10^−5 M, control 52.5 ± 2.1",47.4 ± 2.0 %
same,"MA - drop of optical density, %","thrombocytes; 10^−6 M, control 52.8 ± 1.8",51.2 ± 3.2%
same,"MA - drop of optical density, %","thrombocytes; 10^−7 M, control 51.5 ± 2.1",50.7 ± 3.2%

# — US8592421B2, “Cyclic bioisosters of purine system derivatives and a pharmaceutical composition based thereon” (priority 2003, dated 2013)
